For experiment [1], the system named is TRZSS: wheat, including spring and winter (Triticum aestivum). Description: Post-emergent Test III, herbicidal activity in wheat and barley. The class given is in vivo. Particulars: Table 9, 21 d; for GR20 TRZSS: dose for 20 percent growth reduction, probit analysis; for pest or weed control at 35 g/ha: 35 g ai/ha; for pest or weed control at 70 g/ha: 70 g ai/ha. As for the experimental part: (§1) Post-emergent Test III. Seeds of the desired test plant species were planted in Sun Gro MetroMix® 306 planting mixture, which typically has a pH of 6.0 to 6.8 and an organic matter content of about 30 percent, in plastic pots with a surface area of 103.2 square centimeters (cm^2). When required to ensure good germination and healthy plants, a fungicide treatment and/or other chemical or physical treatment was applied. The plants were grown for 7-36 days (d) in a greenhouse with an approximate 14 hour (h) photoperiod which was maintained at about 18° C. during the day and 17° C. during the night. Nutrients and water were added on a regular basis and supplemental lighting was provided with overhead metal halide 1000-Watt lamps as necessary. The plants were employed for testing when they reached the second or third true leaf stage.
(§2) A weighed amount, determined by the highest rate to be tested, of each test compound was placed in a 25 mL glass vial and was dissolved in 4 mL of a 97:3 v/v mixture of acetone and DMSO to obtain concentrated stock solutions. […] The concentrated stock solutions obtained were diluted with 20 mL of an aqueous mixture containing acetone, water, isopropyl alcohol, DMSO, Agri-Dex crop oil concentrate, and X-77 surfactant in a 48:39:10:1.5:1.5:0.02 v/v ratio to obtain spray solutions containing the highest application rates. Additional application rates were obtained by serial dilution of 12 mL of the high rate solution into a solution containing 2 mL of 97:3 v/v mixture of acetone and DMSO and 10 mL of an aqueous mixture containing acetone, water, isopropyl alcohol, DMSO, Agri-Dex crop oil concentrate, and X-77 surfactant in a 48:39:10:1.5:1.5:0.02 v/v ratio to obtain ½×, ¼×, ⅛× and 1/16× rates of the high rate. Compound requirements are based upon a 12 mL application volume at a rate of 187 liters per hectare (L/ha). Formulated compounds were applied to the plant material with an overhead Mandel track sprayer equipped with 8002E nozzles calibrated to deliver 187 L/ha over an application area of 0.503 square meters at a spray height of 18 inches (43 cm) above the average plant canopy height. Control plants were sprayed in the same manner with the solvent blank.
(§3) The treated plants and control plants were placed in a greenhouse as described above and watered by subirrigation to prevent wash-off of the test compounds. After 21 d, the condition of the test plants as compared with that of the untreated plants was determined visually and scored on a scale of 0 to 100 percent where 0 corresponds to no injury and 100 corresponds to complete kill.
(§4) By applying the well-accepted probit analysis as described by J. Berkson in Journal of the American Statistical Society, 48, 565 (1953) and by D. Finney in “Probit Analysis” Cambridge University Press (1952), herbicidal injury of a specific compound at various rates can be used to calculate GR20, GR50, GR80 and GR90 values, which are defined as growth reduction factors that correspond to the effective dose of herbicide required to provide plant growth reduction (GR) of 20 percent, 50 percent, 80 percent and 90 percent, respectively. Probit analysis was applied to data collected from multiple dose rates of individual compounds utilizing the procedures explained in the following examples. The analysis of those dose rates is captured in the following tables.

Assay in experiment [2]: as above
The class given is in vivo, Lolium multiflorum, Lolium rigidum. Particulars: Lolium multiflorum, post-emergence, 504 h, read-out: Visual Growth Reduction (%) 21 Days After Application LOLSS; for pest or weed control at 35 g/ha: 35 g ai/ha; for pest or weed control at 70 g/ha: 70 g ai/ha; for pest or weed control at 140 g/ha: 140 g ai/ha. The protocol:
as §1, §2, §3, §4

Experiment [3] relates to SETVI: green foxtail (Setaria viridis). Described as above. The class given is in vivo. To be noted: Table 9, 21 d; for pest or weed control at 35 g/ha: 35 g ai/ha; for pest or weed control at 70 g/ha: 70 g ai/ha; for GR50 SETVI: dose for 50 percent growth reduction; for GR50 SETVI / GR80 SETVI: probit analysis; for GR80 SETVI: dose for 80 percent growth reduction. As for the experimental part:
as §1, §2, §3, §4

The subject of experiment [4] is APESV: bentgrass (Apera spica-venti). Described as above. To be noted: for pest or weed control at 35 g/ha / pest or weed control at 70 g/ha / pest or weed control at 140 g/ha: Apera spica-venti, post-emergence, 504 h, read-out: Visual Growth Reduction (%) 21 Days After Application APESV; for pest or weed control at 35 g/ha: 35 g ai/ha; for pest or weed control at 70 g/ha: 70 g ai/ha; for GR50 APESV / GR80 APESV: probit analysis; for pest or weed control at 140 g/ha: 140 g ai/ha. The class given is in vivo. The protocol:
as §1, §2, §3, §4

For experiment [5], the system named is HORSS: barley, including spring and winter (Hordeum vulgare). Described as above. It counts as in vivo. Particulars: Table 9, 21 d; for pest or weed control at 35 g/ha: 35 g ai/ha; for pest or weed control at 70 g/ha: 70 g ai/ha; for GR20 HORSS: dose for 20 percent growth reduction, probit analysis. The protocol: as §1, §2, §3, §4
The subject of experiment [6] is LOLSS: ryegrass including, Italian ryegrass (Lolium multiflorum), rigid ryegrass (Lolium rigidum), annual ryegrass (Lolium multiflorum subsp. Gaudini). The description is as above. It counts as in vivo. Particulars: probit analysis. As for the experimental part:
as §1, §2, §3, §4

Experiment [7] deals with KCHSC: kochia (Kochia scoparia). The experiment is described as above. It counts as in vivo. Particulars: for pest or weed control at 35 g/ha / pest or weed control at 70 g/ha / pest or weed control at 140 g/ha: Bassia scoparia, post-emergence, 504 h, read-out: Visual Growth Reduction (%) 21 Days After Application KCHSC; for pest or weed control at 35 g/ha: 35 g ai/ha; for pest or weed control at 70 g/ha: 70 g ai/ha; for GR50 KCHSC / GR80 KCHSC: probit analysis; for pest or weed control at 140 g/ha: 140 g ai/ha. As for the experimental part:
as §1, §2, §3, §4

The test system of experiment [8] is MATSS: scented mayweed (Matricaria chamomilla), pineappleweed (Matricaria matricarioides). The description is as above. The class given is in vivo. As for the experimental part:
as §1, §2, §3, §4

[9] abbreviates: Triticum aestivum, post-emergence, 504 h, post-emergent, read-out: Visual Growth Reduction (%) 21 Days After Application TRZSS.
The mark [10] stands for this setting: Setaria viridis, post-emergence, 504 h, post-emergent, read-out: Visual Growth Reduction (%) 21 Days After Application SETVI.
The mark [11] stands for this setting: Table 9, dose for 50 percent growth reduction, 21 d.
The mark [12] stands for this setting: Table 9, dose for 80 percent growth reduction, 21 d.
Where [13] appears, read: Hordeum vulgare, post-emergence, 504 h, post-emergent, read-out: Visual Growth Reduction (%) 21 Days After Application HORSS.
The mark [14] stands for this setting: dose for growth reduction of 50 percent, 21 days after application.
Setting [15] is: dose for growth reduction of 80 percent, 21 days after application.

The record followed here is patent publication US9113629B2, “4-amino-6-(4-substituted-phenyl)-picolinates and 6-amino-2-(4-substituted-phenyl)-pyrimidine-4-carboxylates and their use as herbicides” (DOW AGROSCIENCES LLC, priority 2013, dated 2015).

Read-outs that look alike come from different tables or passages of the source.

Turning to `C#Cc1ccc(-c2nc(C(=O)O)c(C=C)c(N)c2F)cc1` [Compound 36], the “GR20 TRZSS” value in experiment [1] is recorded as 1 g ai/ha. The pest or weed control at 35 g/ha was in the range of 75 to 84% in experiment [1] (setting [9]); 0 to 29% in experiment [2] (Table 9, post-emergent, 21 d); 0 to 29% in experiment [3] (setting [10]); 0 to 29% in experiment [4] (Table 9, post-emergent, 21 d); 30 to 44% in experiment [5] (setting [13]); 0 to 29% in experiment [7] (Table 9, post-emergent, 21 d). Besides, the pest or weed control at 70 g/ha was in the range of 75 to 84% in experiment [1] (setting [9]); 0 to 29% in experiment [2] (Table 9, post-emergent, 21 d); 30 to 44% in experiment [3] (setting [10]); 0 to 29% in experiment [4] (Table 9, post-emergent, 21 d); 60 to 74% in experiment [5] (setting [13]); 0 to 29% in experiment [7] (Table 9, post-emergent, 21 d). For the same molecule, the “GR50 SETVI” value in experiment [3] is 126 g ai/ha. Further, the “GR80 SETVI” value in experiment [3] is on record as over 140 g ai/ha. Besides, the “GR50 APESV” value in experiment [4] (setting [11]) is recorded as over 140 g ai/ha. For the same molecule, the “GR80 APESV” value in experiment [4] (setting [12]) is recorded as over 140 g ai/ha. Besides, the “GR20 HORSS” value in experiment [5] was 16 g ai/ha. Also, the “GR50 LOLSS” value in experiment [6] (setting [11]) was over 140 g ai/ha. The “GR80 LOLSS” value in experiment [6] (setting [12]) was over 140 g ai/ha. Besides, in experiment [7] (setting [11]), the “GR50 KCHSC” value is over 140 g ai/ha. In experiment [7] (setting [12]), the “GR80 KCHSC” value is recorded as over 140 g ai/ha.

Regarding `Nc1c(F)c(-c2cc(F)c(Br)cc2F)nc(C(=O)O)c1Cl` [Compound 42, 4-amino-6-(4-bromo-2,5-difluorophenyl)-3-chloro-5-fluoropicolinic acid], the “GR20 TRZSS” value in experiment [1] worked out at 1 g ai/ha. Also, the pest or weed control at 35 g/ha is 85 to 94% in experiment [1] (setting [9]); 30 to 44% in experiment [2] (Table 9, post-emergent, 21 d); 85 to 94% in experiment [3] (setting [10]); 85 to 94% in experiment [4] (Table 9, post-emergent, 21 d); 85 to 94% in experiment [5] (setting [13]); 85 to 94% in experiment [7] (Table 9, post-emergent, 21 d). Also, the pest or weed control at 70 g/ha in experiment [1] (setting [9]) was in the range of 85 to 94%; in experiment [2] (Table 9, post-emergent, 21 d) it was 45 to 59%; in experiment [3] (setting [10]), 85 to 94%; in experiment [4] (Table 9, post-emergent, 21 d) it was 85 to 94%; in experiment [5] (setting [13]) it was 85 to 94%; in experiment [7] (Table 9, post-emergent, 21 d) it was 60 to 74%. The pest or weed control at 140 g/ha in experiment [1] (Triticum aestivum, post-emergence, 504 h, 140 g ai/ha, post-emergent, read-out: Visual Growth Reduction (%) 21 Days After Application TRZSS) fell in the range of 95 to 100%; in experiment [2] (Table 9, post-emergent, 21 d), 75 to 84%; in experiment [3] (Setaria viridis, post-emergence, 504 h, 140 g ai/ha, post-emergent, read-out: Visual Growth Reduction (%) 21 Days After Application SETVI), 95 to 100%; in experiment [4] (Table 9, post-emergent, 21 d) it was 95 to 100%; in experiment [5] (Hordeum vulgare, post-emergence, 504 h, 140 g ai/ha, post-emergent, read-out: Visual Growth Reduction (%) 21 Days After Application HORSS), 95 to 100%; in experiment [7] (Table 9, post-emergent, 21 d), 95 to 100%. The “GR50 SETVI” value in experiment [3] came to 1 g ai/ha. Further, in experiment [3], the “GR80 SETVI” value amounted to 19 g ai/ha. For the same molecule, the “GR50 APESV” value in experiment [4] (setting [11]) was 7 g ai/ha. The “GR80 APESV” value in experiment [4] (setting [12]) came to 22 g ai/ha. Besides, the “GR20 HORSS” value in experiment [5] came out at 1 g ai/ha. Besides, the “GR50 LOLSS” value in experiment [6] (setting [11]) was found to be 76 g ai/ha. Besides, the “GR80 LOLSS” value in experiment [6] (setting [12]) was over 140 g ai/ha. Also, the “GR50 KCHSC” value in experiment [7] (setting [11]) amounted to 1 g ai/ha. Further, the “GR80 KCHSC” value in experiment [7] (setting [12]) was determined as 1 g ai/ha.

On to `C=Cc1c(C(=O)O)nc(-c2ccc(Cl)c(F)c2)c(F)c1N` [Compound 214], for which the pest or weed control at 35 g/ha was 30 to 44% in experiment [2]; 75 to 84% in experiment [8] (Matricaria chamomilla, post-emergence, 504 h, 35 g ai/ha, read-out: Visual Growth Reduction (%) 21 Days After Application MATSS); 0 to 29% in experiment [4]; 75 to 84% in experiment [7]. Also, the pest or weed control at 70 g/ha is 45 to 59% in experiment [2]; 85 to 94% in experiment [8] (Matricaria chamomilla, post-emergence, 504 h, 70 g ai/ha, read-out: Visual Growth Reduction (%) 21 Days After Application MATSS); 30 to 44% in experiment [4]; 85 to 94% in experiment [7]. Moreover, the pest or weed control at 140 g/ha is 85 to 94% in experiment [2]; 85 to 94% in experiment [8] (Matricaria chamomilla, post-emergence, 504 h, 140 g ai/ha, read-out: Visual Growth Reduction (%) 21 Days After Application MATSS); 45 to 59% in experiment [4]; 95 to 100% in experiment [7]. Moreover, the “GR50 MATSS” value in experiment [8] (probit analysis, dose for growth reduction of 50 percent, 21 days after application) was determined as 4 g ai/ha. The “GR80 MATSS” value in experiment [8] (probit analysis, dose for growth reduction of 80 percent, 21 days after application) worked out at 41 g ai/ha. In experiment [4] (setting [14]), the “GR50 APESV” value turned out to be 110 g ai/ha. For the same molecule, the “GR80 APESV” value in experiment [4] (setting [15]) was over 140 g ai/ha. In experiment [6] (setting [14]), the “GR50 LOLSS” value was determined as 59 g ai/ha. Further, in experiment [6] (setting [15]), the “GR80 LOLSS” value was over 140 g ai/ha. Also, the “GR50 KCHSC” value in experiment [7] (setting [14]) was determined as 7 g ai/ha. Besides, the “GR80 KCHSC” value in experiment [7] (setting [15]) is 52 g ai/ha.
